Source: US20130123494A1, “COMPLEX COMPOUND AND OPTICAL RECORDING MEDIUM CONTAINING SAME” (KH NEOCHEM CO., LTD., priority 2010, published 2013)

How the values were obtained:
Format in all cases: physicochemical
[1] = Moisture- and heat-resistances test of thin films; conditions: thin film, 80° C., relative humidity 80%, 100 hours
Procedure: Similarly to the film-forming test, thin films of Complex Compounds (2) to (5), (7), (9) to (11), (13) to (21), (24), (26), (28), (30), (31), and (33) were respectively obtained. Using a constant temperature and humidity chamber, KHWII-40HP, manufactured by Satake Chemical Equipment Mfg Ltd., the thin films were exposed in the atmosphere having a temperature of 80° C. and a relative humidity of 80% for 100 hours. Ultraviolet-visible absorption spectra of the thin films before and after the moisture- and heat-resistances test were measured using a spectrophotometer. […] Here, the absorption maximum wavelength after the moisture- and heat-resistances test denotes the absorption maximum wavelength in an absorption spectrum after the moisture- and heat-resistances test.

[2] = Test of storage stability in solution; conditions: 13 mg in 1 mL TFP, brown bottle, 25° C., 3 days; 1250-fold diluted for measurement
Procedure: Each of 13 mg of Complex Compounds (2) to (5), (7), (9) to (11), (13) to (21), (24), (26), (28), (30), (31), and (33) was dissolved in 1 mL of TFP, which was filtered with a filter made of TEFLON (registered trademark) (manufactured by Whatman, having a pore diameter of 0.20 μm), and solutions of Complex Compounds (2) to (5), (7), (9) to (11), (13) to (21), (24), (26), (28), (30), (31), and (33) were respectively obtained. Each of the obtained solutions was transferred to a brown bottle with a lid and stored at 25° C. for 3 days. Before and after the storage stability test, using a spectrophotometer, 1250-fold diluted solutions of Complex Compounds (2) to (5), (7), (9) to (11), (13) to (21), (24), (26), (28), (30), (31), and (33), respectively, were measured for their ultraviolet-visible absorption spectra. […] Here, the absorption maximum wavelength after the storage stability test is the absorption maximum wavelength in the absorption spectrum after the storage stability test.

[3] = Lightfastness test of thin films; conditions: thin film on glass plate, UV fluorescent lamps 15 W/m^2, 45° C., 10 hours
Text: Thin films of Complex Compounds (2) to (5), (7), (9) to (11), (13) to (21), (24), (26), (28), (30), (31), and (33) were respectively obtained similarly to the film-forming test except that a glass plate (manufactured by Taiyu Kizai Co., Ltd.; 2 cm×2 cm; thickness: 2 mm) was used as the substrates instead of the plate made of polycarbonate resin. Using a dewpanel light control weather meter DPWL-5R, manufactured by Suga Test Instruments Co., Ltd., which was equipped with ultraviolet fluorescent lamps (SUGA-FS40, manufactured by Suga Test Instruments Co., Ltd., having a peak wavelength of 313 nm and an illuminance distribution of 282 nm to 373 nm), light was irradiated on the thin films with an amount of light of 15 W/m^2 at 45° C. for 10 hours. Ultraviolet-visible absorption spectra of the thin film before and after the lightfastness test were measured using a spectrophotometer.
Here, the absorption maximum wavelength after lightfastness test denotes an absorption maximum wavelength in the absorption spectrum after the lightfastness test.

Row | I^b/I^b0 (absorbance ratio at absorption maximum after/before moisture- and heat-resistances test) [1] | Δλmax(b) (change in absorption maximum wavelength) [1] [nm] | I^c/I^c0 (absorbance ratio at absorption maximum after/before storage stability test) [2] | Δλmax(c) (change in absorption maximum wavelength) [2] [nm] | I^a/I^a0 (absorbance ratio at absorption maximum after/before lightfastness test) [3] | SMILES
1 | 1.00 | 0 | 1.01 | 0 | 0.91 | Cc1c(/C=N/[N-]c2nc3ccccc3o2)c([O-])n(Cc2ccccc2)c(=O)c1C#N.Cc1c(/C=N/[N-]c2nc3ccccc3o2)c([O-])n(Cc2ccccc2)c(=O)c1C#N.Cc1c(/C=N/[N-]c2nc3ccccc3o2)c([O-])n(Cc2ccccc2)c(=O)c1C#N.Cc1c(/C=N/[N-]c2nc3ccccc3o2)c([O-])n(Cc2ccccc2)c(=O)c1C#N.[Co+3].[Co+3].c1cc[n+]2c(c1)-c1cccc[n+]1CCC2 [Complex Compound (33)]
2 | 1.00 | 0.5 | 1.00 | 0 | 0.99 | CCn1c([O-])c(/C=N/[N-]C(=O)c2ccc(C(F)(F)F)cc2)c(C)c(C#N)c1=O.CCn1c([O-])c(/C=N/[N-]C(=O)c2ccc(C(F)(F)F)cc2)c(C)c(C#N)c1=O.CCn1c([O-])c(/C=N/[N-]C(=O)c2ccc(C(F)(F)F)cc2)c(C)c(C#N)c1=O.CCn1c([O-])c(/C=N/[N-]C(=O)c2ccc(C(F)(F)F)cc2)c(C)c(C#N)c1=O.[Co+3].[Co+3].c1cc2ccc3ccc[n+]4c3c2[n+](c1)CCC4 [Complex Compound (10)]
3 | 1.00 | 0 | 1.01 | 0 | 0.88 | Cc1ccc(-n2c([O-])c(/C=N/[N-]c3nnnn3-c3ccccc3)c(C)c(C#N)c2=O)cc1.Cc1ccc(-n2c([O-])c(/C=N/[N-]c3nnnn3-c3ccccc3)c(C)c(C#N)c2=O)cc1.Cc1ccc(-n2c([O-])c(/C=N/[N-]c3nnnn3-c3ccccc3)c(C)c(C#N)c2=O)cc1.Cc1ccc(-n2c([O-])c(/C=N/[N-]c3nnnn3-c3ccccc3)c(C)c(C#N)c2=O)cc1.[Co+3].[Co+3].c1cc[n+]2c(c1)-c1cccc[n+]1CCC2 [Complex Compound (26)]

Row | SMILES | I^b/I^b0 (absorbance ratio at absorption maximum after/before moisture- and heat-resistances test) [1] | Δλmax(b) (change in absorption maximum wavelength) [1] [nm] | I^c/I^c0 (absorbance ratio at absorption maximum after/before storage stability test) [2] | Δλmax(c) (change in absorption maximum wavelength) [2] [nm] | I^a/I^a0 (absorbance ratio at absorption maximum after/before lightfastness test) [3]
4 | Cc1c(/C=N/[N-]c2nnnn2-c2ccccc2)c([O-])n(CC(C)C)c(=O)c1C#N.Cc1c(/C=N/[N-]c2nnnn2-c2ccccc2)c([O-])n(CC(C)C)c(=O)c1C#N.[Co+3].c1ccc(-c2nn(-c3ccccc3)[n+](-c3ccccc3)n2)cc1 [Complex Compound (15)] | 1.00 | 0 | 1.01 | 0 | 0.88
5 | Cc1c(/C=N/[N-]c2nc3ccccc3o2)c([O-])n(Cc2ccco2)c(=O)c1C#N.Cc1c(/C=N/[N-]c2nc3ccccc3o2)c([O-])n(Cc2ccco2)c(=O)c1C#N.Cc1c(/C=N/[N-]c2nc3ccccc3o2)c([O-])n(Cc2ccco2)c(=O)c1C#N.Cc1c(/C=N/[N-]c2nc3ccccc3o2)c([O-])n(Cc2ccco2)c(=O)c1C#N.Fc1cccc(-[n+]2ccc(-c3cc[n+](-c4cccc(F)c4)cc3)cc2)c1.[Co+3].[Co+3] [Complex Compound (24)] | 1.00 | 0.5 | 1.02 | 0.5 | 0.92
